Results as given in US5654303A, “Alkyl amine derivatives of substituted quinoxaline 2,3-diones as glutamate receptor antagonists” (Warner-Lambert Company, priority 1995, dated 1997).

Columns and labels:
CF-1 strain mice = experiment: maximal electroshock (MES) assay in mice; type: in vivo; settings: IV
Source text: Additionally, a preliminary indicator of in vivo CNS activity related to anticonvulsant activity and potential neuroprotection, is a maximal electroshock (MES) assay in CF-1 strain mice (20-25 g) performed with corneal electrodes by conventional methods as described previously (Krall, et al., Epilepsia, 1988;19:409-428).
MES (IV) Data for Compound 1 from Table 1 [drawing 23]

[1] = target: kainate site (non-NMDA receptor); experiment: Kainate site (non-NMDA receptor) binding (London and Coyle), Table 1 'KA'
AMPA receptors = experiment: AMPA receptor binding (Honore et al.), Table 1

Row | SMILES | IC50 KA [1] | IC50 (AMPA receptors) | also measured
1 | Cc1c([N+](=O)[O-])cc2[nH]c(=O)c(=O)[nH]c2c1CN(C)C [Compound 1] | 4.483 µM | 1.5 µM | Ataxic (%) (CF-1 strain mice; 3 min, 10 mg/kg): 0%; Protected (%) (CF-1 strain mice; 3 min, 10 mg/kg): 40%; Ataxic (%) (CF-1 strain mice; 3 min, 30 mg/kg): 20%; Protected (%) (CF-1 strain mice; 3 min, 30 mg/kg): 60%; Ataxic (%) (CF-1 strain mice; 30 min, 10 mg/kg): 40%; Protected (%) (CF-1 strain mice; 30 min, 10 mg/kg): 60%; Ataxic (%) (CF-1 strain mice; 30 min, 30 mg/kg): 40%; Protected (%) (CF-1 strain mice; 30 min, 30 mg/kg): 80%
2 | CCN(CC)Cc1c(C)c([N+](=O)[O-])cc2[nH]c(=O)c(=O)[nH]c12 [Compound 2] | 6.647 µM | 0.689 µM | –
3 | CCCN(CCC)Cc1c(C)c([N+](=O)[O-])cc2[nH]c(=O)c(=O)[nH]c12 [Compound 3] | 24.93 µM | 1.63 µM | –
4 | CCCCN(CCCC)Cc1c(C)c([N+](=O)[O-])cc2[nH]c(=O)c(=O)[nH]c12 [Compound 4] | 20.50 µM | 4.64 µM | –
5 | Cc1c([N+](=O)[O-])cc2[nH]c(=O)c(=O)[nH]c2c1CNC1CCCCC1 [Compound 5] | 5.128 µM | 1.26 µM | –
6 | Cc1c([N+](=O)[O-])cc2[nH]c(=O)c(=O)[nH]c2c1CN(C)C1CCCCC1 [Compound 6] | 5.331 µM | 3.23 µM | –
7 | Cc1c([N+](=O)[O-])cc2[nH]c(=O)c(=O)[nH]c2c1CN(C)C(C)C [Compound 7] | 8.23 µM | 1.15 µM | –
